# Source: US10864200B2, “Stable formulations for immune-modulatory macrolides” (Roche Diagnostics Operations, Inc., priority 2017, dated 2020)
# Values joined by “and” are separate entries in the source; they are usually repeats but may differ in a detail not shown here. Equal entries are not always repeated. Where two headings read alike, the source gives them in different places.
# Experiments:
# [1] = cited from earlier work
# [2] = Real-time stability (RTS) of sirolimus and tacrolimus in chlorhexidine-containing cell-free blood hemolysate, LC-MS/MS; format: physicochemical; settings: for area-ratio (analyte / internal standard): hemolysate with 0.024% chlorhexidine; for real-time stability demonstrated: 6° C., chlorhexidine-containing hemolysate formulation
# Method: (§1) A formulation was prepared by firstly hemolyzing human whole blood: Human EDTA whole blood of 5 donors was hemolyzed by a freeze-and-thaw cycle. After freezing the whole blood sample from each donor separately at −80° C. and thawing at room temperature, all samples were combined, mixed on a roller for at least 1 hour and then centrifuged for 15 minutes at 22° C. and 12000 g in order to remove fragments of hemolyzed blood cells potentially present. After the centrifugation, the upper section (approximately ⅘ of the whole volume) of the hemolyzed blood was used as hemolysate. Finally, chlorhexidine was added to the hemolysate to a concentration of 0.024%.
# For checking the RTS, the chlorhexidine-containing hemolysate was spiked from a highly concentrated stock solution of sirolimus to approx. 100 ng/mL or tacrolimus to approx. 135 ng/mL, and aliquots thereof were stressed at 6° C. for 3 months respectively in brown LC-MS vials. The stressed samples and the corresponding non-stressed samples (T0 samples) were stored at 6° C. for a couple of days until their LC-MS/MS analysis.
# LC-MS/MS method: Before performing the LC-MS/MS analysis the samples were prepared by addition of 10 μL structurally similar internal standards (everolimus D4 2×C13 for sirolimus and non-labeled ascomycin for tacrolimus) to 100 μL of the sample to be analyzed, followed by a protein precipitation by addition of 150 μL acetonitrile. The mixture was incubated at 4° C. for 60 minutes and then centrifuged (18000 g, 4° C., 30 min). The supernatant was 1:4 diluted with a solvent mixture of 30% acetonitrile and 70% deionized water and then injected in the LC-MS/MS. The recovery value was the found area-ratio at time point (T1) compared to the non-stressed area-ratio at start time point (T0) as reference (see table 5). Formulations with recoveries >90% were classified as stable and with 80-90% as acceptable.
# LC-MS/MS conditions were • Solvents: A: 5 mM NH4Acetate in H2O+0.1% Formic acid/ • B: Methanol+0.1% Formic acid • Gradient: according to Table 4. • AB Sciex Triple Quad 6500+/Agilent HPLC 1290-Infinity II • ESI source • Column: Phenomenex—Kinetex F5, 2.6 μm particle, 50 mm×2.1 mm • Temperature: 40° C. (Column) and 8° C. (Autosampler) • Injection volume 20 μL • MRM Transition at DP: 70 V EP: 10 V CXP: 12 V • Detection: everolimus: Q1: 975.7 Da Q3: 908.7 Da CE 25 V • everolimus d4,2×C13: Q1: 981.7 Da Q3: 914.7 Da CE 25 V • sirolimus: Q1: 931.7 Da Q3: 864.6 Da CE 25 V • tacrolimus: Q1: 821.5 Da Q3: 576.4 Da CE 33 V • ascomycin: Q1: 809.5 Da Q3: 564.4 Da CE 33 V
# [3] = known from literature; cited from earlier work
# [4] = Real-time stability (RTS) of everolimus in chlorhexidine-containing cell-free blood hemolysate, LC-MS/MS; format: physicochemical; settings: for everolimus concentration: hemolysate with 0.024% chlorhexidine
# Method: as §1
# For checking the RTS, the chlorhexidine-containing hemolysate was spiked from a highly concentrated stock solution of everolimus to approx. 100 ng/ml, and aliquots thereof were stressed at 6° C. for 3, 6, 9, 12, and 15 months respectively in brown LC-MS vials. The stressed samples and the corresponding non-stressed samples (T0 samples) were analyzed by LC-MS/MS measurements.
# LC-MS/MS method: Before performing the LC-MS/MS analysis, the samples were treated by addition of 10 μL isotope-labeled internal standards (d4/2×C13—everolimus) to 100 μL of the sample to be analyzed, followed by a protein precipitation by addition of 150 μL acetonitrile. The mixture was incubated at 4° C. for 60 minutes and then centrifuged (18000 g, 4° C., 30 min). The supernatant was diluted 1:4 with a solvent mixture of 30% acetonitrile and 70% water and then injected in the LC-MS/MS. The samples were quantified by an external calibration curve. The calibrator was a set of solutions with different concentrations of analyte and they were run through the same preparation workflow, with the same internal standard as the samples. For the calculation of the concentration in a sample, the response factors (ratio of analyte peak area and internal standard peak area) of the sample were referenced with the linear function of the calibration curve (ratio by concentration). The recovery value was the concentration measured at time point (Ti) compared to the non-stressed concentration at start time point (T0) as reference (see Table 3). Formulations with recoveries >90% were classified as stable.
# LC-MS/MS conditions were • Solvents: A: 0.5 mM NH4Acetate in H2O/B: Methanol • Gradient: according to Table 2. • AB Sciex 6500 QTRAP/Agilent HPLC 1290-Infinity • APCI source negative mode • Column: Phenomenex—Kinetex F5, 2.6 μm particle, 150 mm×2.1 mm • Temperature: 50° C. (Column) and 8° C. (Autosampler) • Injection volume 20 μL • Calibration: external, with 6 concentration levels covering 0-500 ng/mL • MRM Transition at DP: −76 V EP: −10 V CE: −30 V CXP: −24 V • Detection: everolimus: Q1: 956.6 Da Q3: 590.2 Da; everolimus d4,2×C13: Q1: 962.2 Da Q3: 590.2 Da.
# [5] = Real-time stability study of everolimus in hemolysate with NaN3 as additive; format: physicochemical; settings: hemolysate with 0.009% sodium azide
smiles,measurement,setting,value
"C=CC[C@@H]1/C=C(\C)C[C@H](C)C[C@H](OC)[C@H]2O[C@@](O)(C(=O)C(=O)N3CCCC[C@H]3C(=O)O[C@H](/C(C)=C/[C@@H]3CC[C@@H](O)[C@H](OC)C3)[C@H](C)[C@@H](O)CC1=O)[C@H](C)C[C@@H]2OC [tacrolimus, (1R,9S,12S,13R,14S,17R,18E,21S,23S,24R,25S,27R)-1,14-dihydroxy-12-[(1E)-1-[(1R,3R,4R)-4-hydroxy-3-methoxycyclohexyl]prop-1-en-2-yl]-23,25-dimethoxy-13,19,21,27-tetramethyl-17-(prop-2-en-1-yl)-11,28-dioxa-4-azatricyclo octacos-18-ene-2,3,10,16-tetrone]",Literature-provided stability of blood samples (in words),[1]; 1d/RT,not stable ^9
same,Literature-provided stability of blood samples,"[1]; <0° C., −70° C.",1a/−70 °C ^8
same,Literature-provided stability of blood samples,"[1]; >RT, 37° C.",3d/37 °C ^7
same,Literature-provided stability of blood samples,[1]; RT,14d/RT ^8 and 7d/RT ^7
same,Recovery value (area-ratio at T1 compared to T0),[2]; 3 months at 6° C.,98%
same,area-ratio (analyte / internal standard),[2]; 3 months at 6° C.,0.972
same,real-time stability demonstrated,[2],3 months
same,area-ratio (analyte / internal standard),"[2]; T0 (non-stressed), sirolimus approx. 100 ng/mL, tacrolimus approx. 135 ng/mL",0.99
same,Recovery value (area-ratio at T1 compared to T0),[2]; T0 (reference),100%
same,aqueous solubility,[3],poor
"CO[C@H]1C[C@@H]2CC[C@@H](C)[C@@](O)(O2)C(=O)C(=O)N2CCCC[C@H]2C(=O)O[C@H]([C@H](C)C[C@@H]2CC[C@@H](O)[C@H](OC)C2)CC(=O)[C@H](C)/C=C(\C)[C@@H](O)[C@@H](OC)C(=O)[C@H](C)C[C@H](C)/C=C/C=C/C=C/1C [sirolimus, (1R,9S,12S,15R,16E,18R,19R,21R,23S,24E,26E,28E,30S,32S,35R)-1,18-dihydroxy-12-{(2R)-1-[(1S,3R,4R)-4-hydroxy-3-methoxycyclohexyl]-2-propanyl}-19,30-dimethoxy-15,17,21,23,29,35-hexamethyl-11,36-dioxa-4-azatricyclo hexatriaconta-16,24,26,28-tetraene-2,3,10,14,20-pentone]",Literature-provided stability of blood samples,"[1]; 2-8° C., 4° C. (dark & in light)",8d/4 °C
same,Literature-provided stability of blood samples,"[1]; 2-8° C., 4° C.",7d/4 °C ^11
same,Literature-provided stability of blood samples,"[1]; <0° C., −20 to −80° C.",1a/−20 to −80 °C ^3
same,Literature-provided stability of blood samples,"[1]; <0° C., −20° C.",3m/−20 °C ^1 and 6m/−20 °C ^11
same,Literature-provided stability of blood samples,"[1]; >RT, 30° C. (dark & in light)",8d/30 °C
same,Literature-provided stability of blood samples,"[1]; >RT, 30° C. (in light)",7d/30 °C (in light) ^1
same,Literature-provided stability of blood samples,[1]; RT,1d/RT ^11 and 1d/RT ^3
same,real-time stability demonstrated,[2],3 months
same,aqueous solubility,[3],poor
"CO[C@H]1C[C@@H]2CC[C@@H](C)[C@@](O)(O2)C(=O)C(=O)N2CCCC[C@H]2C(=O)O[C@H]([C@H](C)C[C@@H]2CC[C@@H](OCCO)[C@H](OC)C2)CC(=O)[C@H](C)/C=C(\C)[C@@H](O)[C@@H](OC)C(=O)[C@H](C)C[C@H](C)/C=C/C=C/C=C/1C [everolimus, (1R,9S,12S,15R,16E,18R,19R,21R,23S,24E,26E,28E,30S,32S,35R)-1,18-dihydroxy-12-[(2R)-1-[(1S,3R,4R)-4-(2-hydroxyethoxy)-3-methoxycyclohexyl]propan-2-yl]-19,30-dimethoxy-15,17,21,23,29,35-hexamethyl-11,36-dioxa-4-azatricyclo hexatriaconta-16,24,26,28-tetraene-2,3,10,14,20-pentone]",everolimus concentration,[4]; 3 months at 6° C.,71.1 ng/mL
same,everolimus concentration,[4]; 6 months at 6° C.,81.8 ng/mL
same,real-time stability demonstrated,"[4]; 6° C., chlorhexidine-containing hemolysate formulation",15 months
same,everolimus concentration,[4]; 9 months at 6° C.,74.6 ng/mL
same,everolimus concentration,[4]; 12 months at 6° C.,92.0 ng/mL
same,everolimus concentration,[4]; 15 months at 6° C.,77.8 ng/mL
same,everolimus concentration,"[4]; T0 (non-stressed), spiked approx. 100 ng/ml",74.8 ng/mL
same,Literature-provided stability of blood samples,"[1]; 2-8° C., 4° C.",7d/4 °C ^11
same,Literature-provided stability of blood samples,"[1]; >RT, 30° C. (in light)",7d/30 °C (in light) ^1
same,Literature-provided stability of blood samples,[1]; RT (in light),6h/RT (in light) ^4
same,measured value for stressed everolimus (unit not given),[5]; 3 months at 6° C.,0.732
same,measured value for stressed everolimus (unit not given),[5]; T0,0.781
same,aqueous solubility,[3],poor
